# Source: US11576979B2, “Pyrrolobenzodiazepine prodrugs and antibody conjugates thereof” (GENENTECH, INC., priority 2016, dated 2023)
# pIC50: −log10 of the molar value. “And” between values parts separate entries of the source, which are not always exact repeats. Equal entries are not always repeated.
# How the values were obtained:
# [1] = system: A2058; experiment: CellTiter-Glo toxicity, 4 days (Example 9); assay type: cell-based; details: 4 days of drug incubation, Table 7A
# Experimental: (§1) The toxicity of various PBD monomer disulfide prodrugs and PBD dimer disulfide prodrugs was evaluated on UACC-257, Igrov-1 and A2058 cell lines. Cells were seeded in 384-well plate and treated with drug 24 hours later. After 4 days of drug incubation, the cell viability was determined using Promega CellTiter-Glo luminescent reagent, which measures ATP level (an indirect measure of cell number). The luminescent intensity was measured on PerkinElmer Envision reader. The relative cell viability was calculated by normalizing to non-drug treatment control and was graphed using KleidaGraph software package. IC50 value was determined as the concentration to obtain 50% of the maximum cell killing.
# [2] = system: Igrov-1; experiment: CellTiter-Glo toxicity, 4 days (Example 9); assay type: cell-based; details: 4 days of drug incubation, Table 7A
# Experimental: as §1
# [3] = system: UACC-257; experiment: CellTiter-Glo toxicity, 4 days (Example 9); assay type: cell-based; details: 4 days of drug incubation, Table 7A
# Experimental: as §1
# [4] = Disulfide cleavage by cysteine, LC/MS; assay type: physicochemical; details: 15 uM compound, 0.2 mM cysteine, pH 7.0, 37 C
# Experimental: (§2) For disulfide cleavage determination, the compounds were incubated at 15 μM with 0.2 mM cysteine or 4 mM GSH in 100 mM Tris buffer pH 7.0 containing 5% methanol at 37° C. Aliquots were taken at specified time points and the samples were analyzed by LC/MS on Sciex TripleTOF 5600 on a Hypersil Gold C18 column (100×2.1, 1.9 Thermo Scientific). The column was eluted by a gradient of buffer A (0.1% formic acid in 10 mM ammonium acetate) to buffer B (0.1% formic acid in 10 mM ammonium acetate in 90% acetonitrile), 5% B 0-0.5 min, 5-25% B 0.5-8 min, 25-75% B 8-13 min, and 75-95% B 13-13.5 min, 95% B 13.5-14.5 min, 95-5% B 14.5-15 min at 0.4 mL/min. All products were separated and characterized by LC/MS/MS in a positive ESI ion mode. All analytes had the protonated molecular MH+ as the major species with little source fragmentation. Full scan accurate mass peak areas were used to estimate relative abundance of each component.
# [5] = Disulfide cleavage by glutathione (GSH), LC/MS; assay type: physicochemical; details: 15 uM compound, 4 mM GSH, pH 7.0, 37 C
# Experimental: as §2
Compound,"pIC50 ([1]; Homo sapiens, A2058, 96 h)","pIC50 ([2]; Homo sapiens, IGROV-1, 96 h)","pIC50 ([3]; Homo sapiens, UACC-257, 96 h)",% Remaining at 24 h by Cys [4],% Remaining at 24 h by GSH [5] [%],pIC50 [1],pIC50 [2],pIC50 [3],% Remaining at 4 h by Cys ([4]; 4 h) [%]
"C=C1C[C@H]2C(O)N(C(=O)OCC3(SSCC)CCOC3)c3cc(OC)c(OC)cc3C(=O)N2C1 (single isomer, unassigned) [PBD monomer disulfide prodrug 11]",6.97,6.68,6.48,14.4%,0,,,,
"C=C1C[C@H]2C(O)N(C(=O)OCC3(SSCC)CCOC3)c3cc(OC)c(OC)cc3C(=O)N2C1 (single isomer, unassigned) [PBD monomer disulfide prodrug 30]",,,,47.1%,0,6.97,6.63,6.51,
C=C1C[C@H]2C(O)N(C(=O)OCC3(SSC(C)C)CC3)c3cc(OC)c(OC)cc3C(=O)N2C1 (stereo partly shown) [PBD monomer disulfide prodrug 7],4.96,< 4.52,< 4.52,96.1%,89.7,,,,
C=C1C[C@H]2C(O)N(C(=O)OCC3(SSCCO)CCCC3)c3cc(OC)c(OC)cc3C(=O)N2C1 (stereo partly shown) [PBD monomer disulfide prodrug 8],7.33,6.76,6.71,86.7%,0.5,,,,
C=C1C[C@H]2C(O)N(C(=O)OCC3(SSCC(=O)O)CCC3)c3cc(OC)c(OC)cc3C(=O)N2C1 (stereo partly shown) [PBD monomer disulfide prodrug 9],6.53,5.98,5.68,81.1%,1,,,,
C=C1C[C@H]2C(O)N(C(=O)OCC(C)(C)SSC(C)C)c3cc(OC)c(OC)cc3C(=O)N2C1 (stereo partly shown) [PBD monomer disulfide prodrug 10],5.74,5.32,5.32,99.4%,88.5,,,,
C=C1C[C@H]2C(O)N(C(=O)OC[C@@H](C)SSCC)c3cc(OC)c(OC)cc3C(=O)N2C1 (stereo partly shown) [PBD monomer disulfide prodrug 12],7.51,7.08,6.81,72.7%,9.5,,,,
C=C1C[C@H]2C(O)N(C(=O)OC[C@@H](C)SSC(C)(C)C)c3cc(OC)c(OC)cc3C(=O)N2C1 (stereo partly shown) [PBD monomer disulfide prodrug 13],< 5.00,< 5.00,< 5.00,99.9%,98.8,,,,
C=C1C[C@H]2C(O)N(C(=O)OCC(C)(C)SSCC)c3cc(OC)c(OC)cc3C(=O)N2C1 (stereo partly shown) [PBD monomer disulfide prodrug 14],,,,68.1%,3,,,,
C=C1C[C@H]2C(O)N(C(=O)OC[C@@H](C)SSC(C)C)c3cc(OC)c(OC)cc3C(=O)N2C1 (stereo partly shown) [PBD monomer disulfide prodrug 15],6.52,6.03,5.82,99.2% and 90.8%,,,,,
C=C1C[C@H]2C(O)N(C(=O)OCCSSC(C)(C)C)c3cc(OC)c(OC)cc3C(=O)N2C1 (stereo partly shown) [PBD monomer disulfide prodrug 16],5.25,4.73,4.71,98.6%,73.2,,,,
C=C1C[C@H]2C(O)N(C(=O)OCC3(SSCC)CC3)c3cc(OC)c(OC)cc3C(=O)N2C1 (stereo partly shown) [PBD monomer disulfide prodrug 17],,,,34.9%,0,,,,
C=C1C[C@H]2C(O)N(C(=O)OCC3(SSCC)CCCCC3)c3cc(OC)c(OC)cc3C(=O)N2C1 (stereo partly shown) [PBD monomer disulfide prodrug 18],,,,75.3%,18.7,,,,
C=C1C[C@H]2C(O)N(C(=O)OCc3ccc(SSC(C)C)cc3)c3cc(OC)c(OC)cc3C(=O)N2C1 (stereo partly shown) [PBD monomer disulfide prodrug 19],7.42,7.11,6.83,4.4%,0,,,,
C=C1C[C@H]2C(O)N(C(=O)OCC(CN(C)C)SSC(C)C)c3cc(OC)c(OC)cc3C(=O)N2C1 (stereo partly shown) [PBD monomer disulfide prodrug 20],,,,0%,0,,,,34
C=C1C[C@H]2C(O)N(C(=O)OCC(COC)SSC(C)C)c3cc(OC)c(OC)cc3C(=O)N2C1 (stereo partly shown) [PBD monomer disulfide prodrug 21],,,,74.7%,0,,,,
C=C1C[C@H]2C(O)N(C(=O)OCC3(SSCCO)CCOC3)c3cc(OC)c(OC)cc3C(=O)N2C1 (stereo partly shown) [PBD monomer disulfide prodrug 22],7.63,7.40,7.09,1.4%,0,,,,
C=C1C[C@H]2C(O)N(C(=O)OC[C@@H](C)SSC3CCOCC3)c3cc(OC)c(OC)cc3C(=O)N2C1 (stereo partly shown) [PBD monomer disulfide prodrug 24],6.22,5.83,5.57,0.1%,0,,,,
C=C1C[C@H]2C(O)N(C(=O)OC[C@@H](C)SSC3COC3)c3cc(OC)c(OC)cc3C(=O)N2C1 (stereo partly shown) [PBD monomer disulfide prodrug 26],7.07,6.61,6.48,29.1%,0,,,,
C=C1C[C@H]2C(O)N(C(=O)OCCSSCCC(=O)O)c3cc(OC)c(OC)cc3C(=O)N2C1 (stereo partly shown) [PBD monomer disulfide prodrug 27],6.58,6.02,6.03,,0,,,,
C=C1C[C@H]2C(O)N(C(=O)OCCSSC3CCCC3)c3cc(OC)c(OC)cc3C(=O)N2C1 (stereo partly shown) [PBD monomer disulfide prodrug 28],6.04,5.64,5.68,62.2%,0,,,,
C=C1C[C@H]2C(O)N(C(=O)OCCSSCCO)c3cc(OC)c(OC)cc3C(=O)N2C1 (stereo partly shown) [PBD monomer disulfide prodrug 29],7.54,7.24,6.85,0%,0,,,,
